# According to patent US5225543A, “Receptors method for purification of G protein-linked” (priority 1991, dated 1993):
# Legend:
# [1] = target: T1, SRIF receptor (GH4 C1 membranes) (Rattus norvegicus, UniProt P30680); assay: Tracing of SRIF R:L complex with [^125 I]Bio-S28 during purification: membrane binding and solubilization (Table 4)
# T1 construct: GH4 C1 rat pituitary tumor cells; endogenous in cells; host or cells: GH4 C1 rat pituitary tumor cells (isolated membranes)
# Method: 1. Binding of biotinyl-SRIF to GH4 C1 membranes. The binding step is carried out as described in Section 4 of "Receptor Binding Methods". Incubations are for 1 hour at room temperature. In the standard purification protocol, the binding incubations contain 10 nM […]/[^125 I]Bio-S28 is added as a tracer at levels of 5,000-100,000 cpm per mg of membrane protein. Control incubations contain 10 uM cold S14 to saturate the receptor with non-biotinylated ligand.
# 2. Solubilization of receptor:ligand complex. This is done as described ("Membrane Solubilization"), with 0.15% deoxycholate:lysolecithin in solubilization buffer containing 0.2 mM MgCl2, to obtain 100,000×g supernatants containing solubilized R:L complex.
# (§1) A preparation of SRIF receptor is purified from 17 mg GH4 C1 pituitary cell membranes as described in "Methods: Receptor Purification". Some important features of this experiment are as follows: Two 17 mg samples of membranes are used. Both are incubated with 10^-8 M Bio-S28. However, one sample also receives 10^-5 M non-biotinyl S14 for 23 minutes before addition of any Bio-S28. This serves to block binding of Bio-S28 and creates a control to show non-specific binding of proteins to the streptavidin column. Also, each sample received 1.5×10^8 cpm of [^125 I]Bio-S28 as a tracer. This is added 2-3 minutes before the addition of cold Bio-S28. After a 1-hour binding step, the membranes are washed in binding buffer without BSA and solubilized in solubilization buffer containing 0.15% deoxycholate:lysolecithin and 0.2 mM MgCl2. Each 100,000×g supernatant (17 ml) is incubated with 0.6 ml of streptavidin-agarose for 4 hours at 4°-10° C. The SA-agarose is transferred to a 0.7 cm diameter column, washed and eluted with EDTA/EGTA/GTP-gamma-S as described ("Methods: Receptor Purification").
# (§2) Radioligand is followed through the procedure to estimate solubilization of R:L complex and % initial binding of R:L complex to immobilized streptavidin.
# streptavidin = target: T2, streptavidin (Streptomyces avidinii, UniProt P22629); assay: Tracing of SRIF R:L complex with [^125 I]Bio-S28 during purification: binding to immobilized streptavidin (Table 4)
# T2 construct: purchased Pierce Chemical Co
# Method: 3. Adsorption of solubilized R:L complex to streptavidin. Immobilized streptavidin (streptavidin cross-linked to 6% beaded agarose, Pierce Chemical Co.; "SA-agarose") is washed in solubilization buffer and added to the solubilized membranes as 1/30 of the final volume. This mixture is incubated with constant stirring by end-over-end rotation for 4-5 hours at 4°-10° C. Then the mixture is applied to a column and the non-bound material is washed through. Binding of radioligand to SA-agarose is determined by comparing cpm in the 100,000×g supernatant with that in the column effluent after adsorption to SA-agarose. Finally, the column is washed with 12-15 column volumes of solubilization buffer+0.15% deoxycholate:lysolecithin+1/500 (vol/vol) 100×4pase.
# as §1, §2
# [2] = target: T1, SRIF receptor (GH4 C1 membranes); assay: Purification method as receptor assay: binding of biotinyl-S28 to GH4 C1 membranes (FIG. 10); details: 10 nM B28 in binding step
# Method: Soluble material is adsorbed to streptavidin-Sepharose for 4 hours and eluted with 100 uM GTP-gamma-S+100 uM EDTA+100 uM EGTA. Then the GTP-gamma-S eluates are incubated overnight with immobilized wheat germ agglutinin (to adsorb glycoproteins, including the receptor).
# The WGA-agarose pellets are washed and then boiled in SDS polyacrylamide gel sample buffer (to melt the agarose and solubilize proteins). […] The proteins not bound to WGA are processed separately and also separated by SDS-PAGE (FIG. 10C).
# [3] = target: T1, SRIF receptor (GH4 C1 membranes); assay: Competitive radioligand binding vs [^125 I]Tyr11-S14 on GH4 C1 membranes (FIG. 4); details: vs [^125 I]Tyr11-S14; 20 ug GH4 C1 membrane protein, 100,000 cpm (FIG. 4B)
# Method: Membrane Isolation--1-8 liter batches of cells at densities of 6-10×10^5 cells/ml are pelleted in conical bottom glass centrifuge bottles (600 or 800 ml; Bellco) at 1,000× g for 5 min. The supernatants are carefully poured off and the cells are resuspended in ice cold homogenization medium (1 mM Na-bicarbonate at pH 7.6, 1 mM EDTA and 1 mM EGTA) containing 0.7% (vol/vol) of the "100×4pase" protease inhibitor cocktail (see below). Twenty ml of homogenization medium is used for every liter of suspension culture. After 5 min. on ice, the hypotonically swollen cells are homogenized with 10 strokes of a tight fitting Dounce homogenizer (Kontes, type A pestle). The homogenate is centrifuged at 1,000× g for 10 min. and the supernatant is removed and kept on ice. The 1,000× g pellet containing residual intact cells, nuclei and DNA is washed by gently homogenizing with 4 strokes with a type B pestle in one half the original volume of homogenization medium and recentrifuging for 10 min. at 1,000× g. The final 1,000× g pellet consists mostly of DNA and is discarded. The 1,000× g supernatants are combined and centrifuged at 20,000× g for 30 min. The 20,000× g pellet is washed twice in 25 mM Tris (pH 7.4), with centrifugation for 25 min. at 20,000 2 g. Final membrane pellets are resuspended in 25 mM Tris buffer to concentrations of 4-10 mg membrane protein/ml. Then the 100× 4pase protease inhibitor cocktails are added to 1% of final volume and aliquots are frozen on dry ice. Membranes are stored at -90° C. until needed. Membrane protein is assayed with the Bradford dye binding assay (Bio-Rad).
# Standard Binding Assays--Binding assays are done in a binding buffer containing 50 mM HEPES (pH 7.4), 0.5% BSA and 5 mM MgCl2. The standard assay for [^125 I]SRIF analog binding to GH4 CL membranes, done in 96 well microtiter plates (Dynatech Immulon II Removawell plates), is carried out as follows: 1. Radioligand is diluted in binding buffer+PMSF/Baci to the desired cpm per vol. of 50 μl and then 50 μl aliquots are added to the wells. For non-specific binding samples, 5 μl of 40 μM cold S14 is also added per well. […] Binding is initiated by adding 150 μl per well of membrane diluted to the desired concentration (10-30 ug membrane protein/well) in binding buffer+PMSF/Baci. Plates are then covered with Linbro mylar plate sealers (Flow Labs) and placed on a Dynatech Microshaker II and binding is allowed to proceed at room temperature for 1-2 hours. Binding is stopped by centrifuging the plate for 15 minutes at 2,000×g. The supernatants are dumped off and membrane pellets washed once by addition of 200 μl of ice cold binding buffer, brief shaking and recentrifugation. Finally the individual wells are placed in 12×75 mm tubes and counted in an LKB Gammamaster counter (78% efficiency). […]
# [4] = 10^-8 M Bio-S28 + 10^-5 M S14 (NSB)
# [5] = 10^-8 M Bio-S28, [^125 I]Bio-S28 tracer
# [6] = 10^-8 M Bio-S28, [^125 I]Bio-S28 tracer, 4 hours
# T1 sequence (P30680 whole entry): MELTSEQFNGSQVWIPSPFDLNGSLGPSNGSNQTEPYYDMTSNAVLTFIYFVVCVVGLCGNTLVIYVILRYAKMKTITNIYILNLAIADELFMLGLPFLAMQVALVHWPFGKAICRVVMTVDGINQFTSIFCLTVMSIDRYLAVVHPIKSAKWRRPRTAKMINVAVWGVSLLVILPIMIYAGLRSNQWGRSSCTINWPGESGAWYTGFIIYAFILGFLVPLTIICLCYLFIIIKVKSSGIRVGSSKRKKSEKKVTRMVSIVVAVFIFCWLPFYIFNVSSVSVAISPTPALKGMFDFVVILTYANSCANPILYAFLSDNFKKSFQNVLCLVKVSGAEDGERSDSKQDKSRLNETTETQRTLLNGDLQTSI
# T2 sequence (P22629 25-183): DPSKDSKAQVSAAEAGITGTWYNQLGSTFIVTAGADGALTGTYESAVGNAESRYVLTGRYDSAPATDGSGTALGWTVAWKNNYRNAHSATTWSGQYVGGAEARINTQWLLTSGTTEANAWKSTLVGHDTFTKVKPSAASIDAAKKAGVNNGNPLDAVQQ
substance,measurement,setting,value
"Biotinyl-NH-(Leu8, D-Trp22, Tyr25)SRIF28 [Bio-S28]",CPM initially bound to membranes (NSB),[1]; [4],"9,316 CPM"
same,CPM solubilized by deoxycholate:lysolecithin (%) (NSB),[1]; [4],73%
same,CPM solubilized by deoxycholate:lysolecithin (NSB),[1]; [4],"6,834 CPM"
same,CPM initially bound to membranes,[1]; [5],"59,132 CPM"
same,CPM solubilized by deoxycholate:lysolecithin,[1]; [5],"54,094 CPM"
same,CPM solubilized by deoxycholate:lysolecithin (%),[1]; [5],91%
same,Solubilized CPM non-bound to streptavidin (%) (NSB),streptavidin; [4],15%
same,Solubilized CPM non-bound to streptavidin (NSB),streptavidin; [4],"1,054 CPM"
same,Solubilized CPM non-bound to streptavidin,streptavidin; [6],"14,960 CPM"
same,Solubilized CPM non-bound to streptavidin (%),streptavidin; [6],28%
same,total specific binding at or near saturation,[2],1.8 pmol
same,IC50,[3],0.3 nM
